Results reported in patent US6403618B1, “Agent and method for controlling angiogenesis” (Novactyl, Inc., priority 2000, dated 2002).

Key:
[1] = test system: MDA-468 cells; type: cell-based, human
Method: As in the case of WI-38, MDA-468 cell viability after fusaric acid treatment was investigated in logarithmically growing and confluent cells. In logarithmically growing MDA-468 cells, less than 20% of the attached cells were viable after 30 hours of treatment with fusaric acid. When the cells were treated for 48 hours, only 0.1% of the cell population survived the pronounced cytotoxic actions of fusaric acid. […] Thus, MDA-468 cells are extremely sensitive to the cytotoxic actions of fusaric acid in both growing and confluent population of cells in comparison to normal WI-38 lines studied.

[2] = test system: human breast adenocarcinoma MDA-468 cells; assay: Effect of fusaric acid on growth (cell number); type: cell-based
Method: (§1) After 12-24 hours of treatment with 500 μM fusaric acid, there was no further increase in cell number. […] These floating cells were not viable. Within 30 hours of treatment there was a 65% decrease in cell number. […] After 96 hours, less than 10% of the original population remained attached to the dish and no change in cell number was noted after one additional week.

[3] = test system: colon carcinoma LoVo cells; assay: Effect of fusaric acid on growth (cell number); type: cell-based
Method: After 30 hours of treatment with 500 μM fusaric acid, there was a prominent decrease in cell number. DNA synthesis was completely (100%) inhibited by 24 hours. When treated with 500 μM fusaric acid, the majority of the LoVo cells acquired a rounded morphology by 48 hours.
These floating cells were not viable. […] However, after 100 hours, an increase in cell number was noted after 25 additional hours.

[4] = test system: WI-38 cells; assay: Viability by trypan blue dye exclusion; type: cell-based; settings: 500 μM
Method: To examine WI-38 cell viability in greater detail, the effects of fusaric acid were studied in logarithmically growing and contact inhibited confluent cells (Tables 2 and 3). In logarithmically growing WI-38 cells approximately 76% of the cells were viable after 30 hours of treatment with fusaric acid. When the cells were treated for 78 hours, only 26% of the cell population survived the pronounced cytotoxic actions of fusaric acid.

[5] = test system: liver adenocarcinoma cell line; assay: Viability of other human carcinoma cell types; type: cell-based; settings: 48 hours of treatment
Method: (§2) As in previous examples, the following human cell lines were inhibited by similar concentrations of fusaric acid: Prostatic adenocarcinoma, skin carcinoma, colon carcinoma, liver adenocarcinoma and lung adenocarcinoma. For all these cell types, cell viability decreased by approximately 60% after 48 hours of treatment with fusaric acid.

[6] = test system: skin carcinoma cell line; assay: Viability of other human carcinoma cell types; type: cell-based; settings: 48 hours of treatment
Method: as §2

[7] = test system: colon carcinoma cell line; assay: Viability of other human carcinoma cell types; type: cell-based; settings: 48 hours of treatment
Method: as §2

[8] = test system: Prostatic adenocarcinoma cell line; assay: Viability of other human carcinoma cell types; type: cell-based; settings: 48 hours of treatment
Method: as §2

[9] = test system: lung adenocarcinoma cell line; assay: Viability of other human carcinoma cell types; type: cell-based; settings: 48 hours of treatment
Method: as §2

[10] = test system: LoVo cells; assay: Viability by trypan blue dye exclusion; type: cell-based; settings: 500 μM
Method: As in the case of WI-38, LoVo cell viability after fusaric acid treatment was investigated in logarithmically growing and confluent cells, as shown in Tables 2 and 3. In logarithmically growing LoVo cells, approximately 38% of the attached cells were viable after 30 hours of treatment with fusaric acid. When the cells were treated for 78 hours, only 4.5% of the cell population survived the pronounced cytotoxic actions of fusaric acid. […] Thus, LoVo cells are much more sensitive to the cytotoxic actions of fusaric acid in both growing and confluent population of cells in comparison to normal WI-38 cells.

[11] = test system: MDA-468 cells; assay: DNA synthesis; type: cell-based; settings: Homo sapiens, by 24 hr, read-out: DNA synthesis inhibited
Method: as §1

[12] = test system: WI-38 cells; assay: Effect of different doses of fusaric acid on total cell protein; type: cell-based; settings: WI-38, 1 mM
Method: (§3) In initial experiments to examine the effects of fusaric acid on cell growth and viability, WI-38 and LoVo cells were incubated for 24 to 72 hours in medium with or without various doses of fusaric acid (0.1-1 mM). The growth of both WI-38 and LoVo cells was inhibited by 500 μM fusaric acid in a time and dose dependent manner, as shown below in Table 2.

[13] = test system: LoVo cells; assay: as above; type: cell-based
Method: as §3

[14] = test system: WI-38 cells; assay: Effect of fusaric acid on growth (cell number); type: cell-based
Excerpt: The remaining cells were spread on the substratum in normal manner without any visible mitosis for 4 days after removal of the drug.

[15] = test system: KB cells; assay: Viability by trypan blue dye exclusion; type: cell-based, human; settings: confluent cells, 500 μM, 48 h
Method: To examine KB cell viability in greater detail, the effects of fusaric acid were studied in logarithmically growing and confluent cells. In logarithmically growing KB cells 70% of the cells were viable after 48 hours in 500 μM fusaric acid. […] Thus, in contrast to LoVo cells, a significant proportion of the population of growing (70%) cells and virtually all (95%) of confluent KB cells resisted the pronounced cytotoxic action of fusaric acid (See Tables 3 and 4, above).

[16] = 500 μM, within 30 hours of treatment
[17] = logarithmic growth, 30 h, listed as Fusaric Acid

CCCCc1ccc(C(=O)O)nc1 [fusaric acid]
cells survived ([1]; confluent cells, 500 μM, 48 hours): 10%
attached cells viable ([1]; logarithmic growth, 30 hours): less than 20%
cell population survived ([1]; logarithmic growth, 48 hours): 0.1%
decrease in cell number [2, 16]: 65%
original population remaining attached to the dish ([2]; drug removed after 30 hours, after 96 hours): less than 10%
decrease in cell number [3, 16]: 60%
decline of cell population after removal of the drug ([3]; removal after 30 hours, up to approximately 100 hours): ~80%
% Survival ([4]; confluent cells, 48 h): 100%
% Survival [4, 17]: 76.4%
% Survival ([4]; logarithmic growth, 78 h): 26%
cell viability decreased [5]: approximately 60%
cell viability decreased [6]: approximately 60%
cell viability decreased [7]: approximately 60%
cell viability decreased [8]: approximately 60%
cell viability decreased [9]: approximately 60%
% Survival ([10]; confluent cells, 48 h): 40%
% Survival ([10]; logarithmic growth, 30 h): approximately 38%
% Survival [10, 17]: 38.5%
% Survival ([10]; logarithmic growth, 78 h): 4.5%
inhibition at 500 µM [11]: 100%
Monolayer Protein ([12]; 24 h): 236 μg/dish
Monolayer Protein ([12]; 48 h): 202 μg/dish
cytotoxicity ([13]; 1 mM fusaric acid, by 24 hours): extensive cytotoxicity
Monolayer Protein ([13]; LoVo, 0.5 mM, 48 h): 90 μg/dish
decrease in cell number ([14]; 30 hours with 500 μM, then 4 days in normal media): 30%
cells survived ([14]; after removal of fusaric acid, 500 μM for 30 hours): > 95%
% Survival [15]: 95%
